Activity calls are given as the source filed them. The calls are words filed in the database; no cut-off is given here.
Key:
[1] = biological target: T1, Prostaglandin G/H synthase 2 (Homo sapiens, UniProt P35354); design: species or system Blood
T1 sequence (P35354 whole entry): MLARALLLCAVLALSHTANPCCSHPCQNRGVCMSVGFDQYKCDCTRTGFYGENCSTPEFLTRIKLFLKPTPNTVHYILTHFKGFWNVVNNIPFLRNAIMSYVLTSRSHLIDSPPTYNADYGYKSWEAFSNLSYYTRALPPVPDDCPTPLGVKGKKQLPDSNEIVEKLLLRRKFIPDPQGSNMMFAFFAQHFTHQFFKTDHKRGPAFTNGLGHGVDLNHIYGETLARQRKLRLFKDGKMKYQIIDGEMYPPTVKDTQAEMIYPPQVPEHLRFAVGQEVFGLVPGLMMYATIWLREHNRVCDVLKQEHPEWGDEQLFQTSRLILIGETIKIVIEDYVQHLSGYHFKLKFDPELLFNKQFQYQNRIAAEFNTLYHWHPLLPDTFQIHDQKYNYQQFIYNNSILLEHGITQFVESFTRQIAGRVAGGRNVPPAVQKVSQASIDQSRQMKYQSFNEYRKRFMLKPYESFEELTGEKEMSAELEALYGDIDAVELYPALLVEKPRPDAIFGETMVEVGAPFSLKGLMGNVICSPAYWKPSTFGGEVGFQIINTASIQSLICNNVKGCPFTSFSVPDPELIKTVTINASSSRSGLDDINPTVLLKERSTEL

[2] = biological target: Prostaglandin G/H synthase 1 (Homo sapiens, UniProt P23219); design: species or system Blood
Prostaglandin G/H synthase 1, sequence (P23219 whole entry): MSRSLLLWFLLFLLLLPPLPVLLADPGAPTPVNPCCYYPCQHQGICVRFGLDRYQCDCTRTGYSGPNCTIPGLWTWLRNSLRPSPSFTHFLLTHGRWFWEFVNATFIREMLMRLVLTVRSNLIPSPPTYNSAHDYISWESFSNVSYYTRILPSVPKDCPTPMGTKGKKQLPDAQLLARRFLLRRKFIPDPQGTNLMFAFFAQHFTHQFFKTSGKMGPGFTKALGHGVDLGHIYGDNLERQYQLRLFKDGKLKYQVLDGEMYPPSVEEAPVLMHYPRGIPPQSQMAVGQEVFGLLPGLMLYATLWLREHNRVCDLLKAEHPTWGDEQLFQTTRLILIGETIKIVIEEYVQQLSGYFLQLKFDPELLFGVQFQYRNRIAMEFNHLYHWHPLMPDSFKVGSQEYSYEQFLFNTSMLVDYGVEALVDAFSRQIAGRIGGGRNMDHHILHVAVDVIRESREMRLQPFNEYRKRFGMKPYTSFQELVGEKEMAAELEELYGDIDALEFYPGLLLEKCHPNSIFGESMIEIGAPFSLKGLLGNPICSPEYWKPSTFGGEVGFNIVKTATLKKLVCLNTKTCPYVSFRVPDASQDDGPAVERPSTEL

[3] = Plasma concentration in Wistar rat lambda carrageenan-induced pleurisy model at 10 mg/kg, ip pretreated for 30 mins followed by lambda carrageenan-challenge measured after 4 hrs by SPE-HPLC analysis; format: ADME, organism-based; design: dose 10 mg/kg, route intraperitoneal
[4] = test system: Rattus norvegicus; experiment: Antiinflammatory activity in Wistar rat lambda carrageenan-induced pleurisy model assessed as decrease in exudate volume at 10 mg/kg, ip pretreated for 30 mins followed by lambda carrageenan-challenge measured after 4 hrs relative to control; format: functional; conditions: route intraperitoneal
[5] = test system: Rattus norvegicus; experiment: Antiinflammatory activity in Wistar rat lambda carrageenan-induced pleurisy model assessed as decrease in number of leukocytes in pleural space at 5 mg/kg, ip pretreated for 30 mins followed by lambda carrageenan-challenge measured after 4 hrs relative to control; format: functional; design: scale not given: the % may be the effect or the level left
[6] = test system: Rattus norvegicus; experiment: Antiinflammatory activity in Wistar rat lambda carrageenan-induced pleurisy model assessed as decrease in number of leukocytes in pleural space at 20 mg/kg, ip pretreated for 30 mins followed by lambda carrageenan-challenge measured after 4 hrs relative to control; format: functional; design: scale not given: the % may be the effect or the level left
[7] = test system: Rattus norvegicus; experiment: Antiinflammatory activity in Wistar rat lambda carrageenan-induced pleurisy model assessed as decrease in exudate volume at 5 mg/kg, ip pretreated for 30 mins followed by lambda carrageenan-challenge measured after 4 hrs relative to control; format: functional; conditions: route intraperitoneal
[8] = Plasma concentration in Wistar rat lambda carrageenan-induced pleurisy model at 5 mg/kg, ip pretreated for 30 mins followed by lambda carrageenan-challenge measured after 4 hrs by SPE-HPLC analysis; format: ADME, organism-based; design: dose 5 mg/kg, route intraperitoneal
[9] = Plasma concentration in Wistar rat lambda carrageenan-induced pleurisy model at 20 mg/kg, ip pretreated for 30 mins followed by lambda carrageenan-challenge measured after 4 hrs by SPE-HPLC analysis; format: ADME, organism-based; design: dose 20 mg/kg, route intraperitoneal
[10] = test system: Rattus norvegicus; experiment: Antiinflammatory activity in Wistar rat lambda carrageenan-induced pleurisy model assessed as decrease in number of leukocytes in pleural space at 10 mg/kg, ip pretreated for 30 mins followed by lambda carrageenan-challenge measured after 4 hrs relative to control; format: functional; design: scale not given: the % may be the effect or the level left
[11] = test system: Rattus norvegicus; experiment: Antiinflammatory activity in Wistar rat lambda carrageenan-induced pleurisy model assessed as decrease in exudate volume at 20 mg/kg, ip pretreated for 30 mins followed by lambda carrageenan-challenge measured after 4 hrs relative to control; format: functional; conditions: route intraperitoneal
[12] = Retention time of the compound by chromatographic analysis; format: physicochemical

Compound	IC50 [1]	IC50 [2]	concentration at 4 h [3]	Activity ([6]; route intraperitoneal)	concentration at 4 h [8]	concentration at 4 h [9]	Activity ([10]; route intraperitoneal)	also measured
Cc1cc(C)cc(Nc2cnccc2NS(=O)(=O)C(F)(F)F)c1	1040 nM	4110 nM	–	–	–	–	–	–
CS(=O)(=O)Nc1ccc([N+](=O)[O-])cc1Oc1ccccc1 [NIMESULIDE]	–	–	41300 ng/mL	72.93%	17000 ng/mL	75200 ng/mL	52.05%	inhibition in vivo at 10 mg/kg [4]: 48.4%; Activity ([5]; route intraperitoneal): 23.08%; inhibition in vivo at 5 mg/kg [7]: 31.1%
O=S(=O)(Nc1ccncc1Nc1cccc(Cl)c1)C(F)(F)F	–	–	680 ng/mL	16.41%	560 ng/mL	1400 ng/mL	–	Activity [5]: inactive; Activity [10]: inactive
O=S(=O)(Nc1ccncc1Nc1ccc(Cl)cc1)C(F)(F)F	–	–	9490 ng/mL	72.47%	4610 ng/mL	27300 ng/mL	54.44%	Activity ([5]; route intraperitoneal): 44.15%
Cc1ccc(-c2cc(C(F)(F)F)nn2-c2ccc(S(N)(=O)=O)cc2)cc1 [CELECOXIB]	–	–	1130 ng/mL	28.87%	620 ng/mL	2680 ng/mL	23.05%	inhibition in vivo at 10 mg/kg [4]: 27.3%; Activity ([5]; route intraperitoneal): 24.02%; inhibition in vivo at 5 mg/kg [7]: 15.7%; inhibition in vivo at 20 mg/kg [11]: 42.1%
CCCC(C)C1(CC)C(=O)NC(=O)NC1=O (centres undefined) [PENTOBARBITAL]	–	–	–	–	–	–	–	Retention_time [12]: 11.71 min
CS(=O)(=O)Nc1ccncc1Nc1cccc(Cl)c1	–	–	690 ng/mL	–	260 ng/mL	1860 ng/mL	–	Activity [5]: inactive; Activity [6]: inactive; Activity [10]: inactive
Cc1cccc(Nc2cnccc2NS(=O)(=O)C(F)(F)F)c1	–	–	200 ng/mL	50.18%	100 ng/mL	410 ng/mL	24.98%	Activity ([5]; route intraperitoneal): 17.07%
O=S(=O)(Nc1ccncc1Nc1cccc(F)c1)C(F)(F)F	240 nM	440 nM	–	–	–	–	–	–
O=S(=O)(Nc1ccncc1Nc1ccc(F)c(Br)c1)C(F)(F)F	2270 nM	1350 nM	34100 ng/mL	69.78%	11400 ng/mL	59100 ng/mL	41.22%	inhibition in vivo at 10 mg/kg [4]: 42.6%; Activity ([5]; route intraperitoneal): 11.13%; inhibition in vivo at 5 mg/kg [7]: 21.9%; inhibition in vivo at 20 mg/kg [11]: 66.5%
Cc1ccc(Nc2cnccc2NS(=O)(=O)C(F)(F)F)cc1Br	90 nM	1400 nM	180 ng/mL	44.06%	170 ng/mL	920 ng/mL	26.24%	inhibition in vivo at 10 mg/kg [4]: 57.1%; Activity [5]: inactive; inhibition in vivo at 5 mg/kg [7]: 19.4%; inhibition in vivo at 20 mg/kg [11]: 71%
CS(=O)(=O)Nc1ccncc1Nc1cccc(F)c1	10000 nM	1370 nM	–	–	–	–	–	–
Cc1cc(C)cc(Nc2cnccc2NS(C)(=O)=O)c1	> 100000 nM	14900 nM	–	–	–	–	–	–
O=S(=O)(Nc1ccncc1Nc1ccccc1)C(F)(F)F	–	–	1540 ng/mL	51.7%	720 ng/mL	3620 ng/mL	34.83%	inhibition in vivo at 10 mg/kg [4]: 55.7%; Activity ([5]; route intraperitoneal): 24.82%; inhibition in vivo at 5 mg/kg [7]: 25.4%; inhibition in vivo at 20 mg/kg [11]: 72.2%
O=S(=O)(Nc1ccncc1Nc1ccc(F)cc1)C(F)(F)F	300 nM	270 nM	–	–	–	–	–	–
CS(=O)(=O)Nc1ccncc1Nc1ccc(F)cc1	20700 nM	2090 nM	–	–	–	–	–	–
Cc1ccc(Nc2cnccc2NS(C)(=O)=O)cc1C	30700 nM	3280 nM	–	–	–	–	–	–
O=S(=O)(Nc1ccncc1Nc1ccc(F)c(Cl)c1)C(F)(F)F	1570 nM	1740 nM	30000 ng/mL	64.71%	13000 ng/mL	54600 ng/mL	48.23%	inhibition in vivo at 10 mg/kg [4]: 67.5%; Activity ([5]; route intraperitoneal): 14.74%; inhibition in vivo at 5 mg/kg [7]: 36.6%; inhibition in vivo at 20 mg/kg [11]: 73.5%
O=S(=O)(Nc1ccncc1Nc1cccc(I)c1)C(F)(F)F	260 nM	1930 nM	–	–	–	–	–	–
Cc1ccc(Nc2cnccc2NS(=O)(=O)C(F)(F)F)cc1C	550 nM	710 nM	–	–	–	–	–	–
O=S(=O)(Nc1ccncc1Nc1cccc(Br)c1)C(F)(F)F	–	–	430 ng/mL	28.52%	300 ng/mL	820 ng/mL	27.07%	Retention_time [12]: 13.65 min; Activity ([5]; route intraperitoneal): 27.1%
O=S(=O)(Nc1ccncc1Nc1ccc(O)c(Br)c1)C(F)(F)F	> 100000 nM	4210 nM	–	–	–	–	–	Retention_time [12]: 10.34 min
N#Cc1cccc(Nc2cnccc2NS(=O)(=O)C(F)(F)F)c1	36200 nM	6650 nM	–	–	–	–	–	–
O=S(=O)(Nc1ccncc1Nc1ccccc1)C1CC1	35100 nM	3610 nM	–	–	–	–	–	–
O=S(=O)(C1CC1)N(c1ccncc1Nc1ccccc1)S(=O)(=O)C1CC1	56800 nM	19600 nM	–	–	–	–	–	–
O=S(=O)(Nc1ccncc1Nc1ccc(O)cc1)C(F)(F)F	> 100000 nM	18100 nM	–	–	–	–	–	–
Cc1ccc(Nc2cnccc2NS(=O)(=O)C(F)(F)F)cc1Cl	1960 nM	1470 nM	–	–	–	–	–	–
Cc1cc(Nc2cnccc2NS(=O)(=O)C(F)(F)F)ccc1Br	300 nM	2320 nM	–	–	–	–	–	–
